Laboratory results: patent US20120245137A1 (Zalicus Pharmaceuticals Ltd., priority 2009, published 2012)
pIC50: −log10 of the molar value.

Columns and labels:
Type in all cases: cell-based
[1] = target: human α1G T-type channels (Homo sapiens, UniProt O43497); assay: T-type calcium channel block, whole cell patch clamp, α1G; details: HEK cells stably expressing human α1G; mainly non-inactivated protocol; values above 10,000 nM represented as 10000
Procedure: (§1) T-type calcium channel blocking activity was assayed in human embryonic kidneycells, HEK 293 (Invitrogen), stably transfected with the T-type calcium channel subunits. Briefly, cells were cultured in Dulbecco's modified eagle medium (DMEM) supplemented with 10% fetal bovine serum, 200 U/ml penicillin, and 0.2 mg/mL streptomycin at 37° C. with 5% CO2. At 85% confluency, cells were split with 0.25% trypsin/1 mM EDTA and plated at 10% confluency on glass coverslips. At 12 hours, the medium was replaced, and the cells stably transfected using a standard calcium phosphate protocol and the appropriate calcium channel cDNA's. Fresh DMEM was supplied, and the cells transferred to 28° C./5% CO2.
(§2) Standard patch-clamp techniques were employed to identify blockers of T-type currents. Briefly, previously described HEK cell lines stably expressing human α1G, α1H, and α1I T-type channels were used for all the recordings (passage #: 4-20, 37° C., 5% CO2). Whole cell patch clamp experiments were performed using an Axopatch 200B amplifier (Axon Instruments, Burlingame, Calif.) linked to a personal computer equipped with pCLAMP software. Data were analyzed using Clampfit (Axon Instruments) and SigmaPlot 4.0 (Jandel Scientific). To obtain T-type currents, plastic dishes containing semi-confluent cells were positioned on the stage of a ZEISS AXIOVERT S100 microscope after replacing the culture medium with external solution (Table 2). Whole-cell patches were obtained using pipettes (borosilicate glass with filament, O.D.: 1.5 mm, I.D.: 0.86 mm, 10 cm length), fabricated on a SUTTER P-97 puller with resistance values of ˜5 MΩ (Table 3).
(§3) T-type currents were reliably obtained by using two voltage protocols: • “non-inactivating,” and • “inactivation.”
(§4) Test compounds were dissolved in external solution, 0.1-0.01% DMSO. After ˜10 minutes rest, they were applied by gravity close to the cell using a WPI microfil tubing. The “non-inactivated” pre-pulse was used to examine the resting block of a compound. The “inactivated” protocol was employed to study voltage-dependent block.

[2] = target: N-type calcium channel subunits (α1B, α2δ, and β3a) (Homo sapiens, UniProt Q00975); assay: Block of Cav2.2 channel, whole cell voltage clamp, manual and PatchXpress; details: Table 5; table follows Assay Example 3 (whole cell voltage clamp / PatchXpress); assay not given
N-type calcium channel subunits (α1B, α2δ, and β3a), sequence (Q00975 whole entry): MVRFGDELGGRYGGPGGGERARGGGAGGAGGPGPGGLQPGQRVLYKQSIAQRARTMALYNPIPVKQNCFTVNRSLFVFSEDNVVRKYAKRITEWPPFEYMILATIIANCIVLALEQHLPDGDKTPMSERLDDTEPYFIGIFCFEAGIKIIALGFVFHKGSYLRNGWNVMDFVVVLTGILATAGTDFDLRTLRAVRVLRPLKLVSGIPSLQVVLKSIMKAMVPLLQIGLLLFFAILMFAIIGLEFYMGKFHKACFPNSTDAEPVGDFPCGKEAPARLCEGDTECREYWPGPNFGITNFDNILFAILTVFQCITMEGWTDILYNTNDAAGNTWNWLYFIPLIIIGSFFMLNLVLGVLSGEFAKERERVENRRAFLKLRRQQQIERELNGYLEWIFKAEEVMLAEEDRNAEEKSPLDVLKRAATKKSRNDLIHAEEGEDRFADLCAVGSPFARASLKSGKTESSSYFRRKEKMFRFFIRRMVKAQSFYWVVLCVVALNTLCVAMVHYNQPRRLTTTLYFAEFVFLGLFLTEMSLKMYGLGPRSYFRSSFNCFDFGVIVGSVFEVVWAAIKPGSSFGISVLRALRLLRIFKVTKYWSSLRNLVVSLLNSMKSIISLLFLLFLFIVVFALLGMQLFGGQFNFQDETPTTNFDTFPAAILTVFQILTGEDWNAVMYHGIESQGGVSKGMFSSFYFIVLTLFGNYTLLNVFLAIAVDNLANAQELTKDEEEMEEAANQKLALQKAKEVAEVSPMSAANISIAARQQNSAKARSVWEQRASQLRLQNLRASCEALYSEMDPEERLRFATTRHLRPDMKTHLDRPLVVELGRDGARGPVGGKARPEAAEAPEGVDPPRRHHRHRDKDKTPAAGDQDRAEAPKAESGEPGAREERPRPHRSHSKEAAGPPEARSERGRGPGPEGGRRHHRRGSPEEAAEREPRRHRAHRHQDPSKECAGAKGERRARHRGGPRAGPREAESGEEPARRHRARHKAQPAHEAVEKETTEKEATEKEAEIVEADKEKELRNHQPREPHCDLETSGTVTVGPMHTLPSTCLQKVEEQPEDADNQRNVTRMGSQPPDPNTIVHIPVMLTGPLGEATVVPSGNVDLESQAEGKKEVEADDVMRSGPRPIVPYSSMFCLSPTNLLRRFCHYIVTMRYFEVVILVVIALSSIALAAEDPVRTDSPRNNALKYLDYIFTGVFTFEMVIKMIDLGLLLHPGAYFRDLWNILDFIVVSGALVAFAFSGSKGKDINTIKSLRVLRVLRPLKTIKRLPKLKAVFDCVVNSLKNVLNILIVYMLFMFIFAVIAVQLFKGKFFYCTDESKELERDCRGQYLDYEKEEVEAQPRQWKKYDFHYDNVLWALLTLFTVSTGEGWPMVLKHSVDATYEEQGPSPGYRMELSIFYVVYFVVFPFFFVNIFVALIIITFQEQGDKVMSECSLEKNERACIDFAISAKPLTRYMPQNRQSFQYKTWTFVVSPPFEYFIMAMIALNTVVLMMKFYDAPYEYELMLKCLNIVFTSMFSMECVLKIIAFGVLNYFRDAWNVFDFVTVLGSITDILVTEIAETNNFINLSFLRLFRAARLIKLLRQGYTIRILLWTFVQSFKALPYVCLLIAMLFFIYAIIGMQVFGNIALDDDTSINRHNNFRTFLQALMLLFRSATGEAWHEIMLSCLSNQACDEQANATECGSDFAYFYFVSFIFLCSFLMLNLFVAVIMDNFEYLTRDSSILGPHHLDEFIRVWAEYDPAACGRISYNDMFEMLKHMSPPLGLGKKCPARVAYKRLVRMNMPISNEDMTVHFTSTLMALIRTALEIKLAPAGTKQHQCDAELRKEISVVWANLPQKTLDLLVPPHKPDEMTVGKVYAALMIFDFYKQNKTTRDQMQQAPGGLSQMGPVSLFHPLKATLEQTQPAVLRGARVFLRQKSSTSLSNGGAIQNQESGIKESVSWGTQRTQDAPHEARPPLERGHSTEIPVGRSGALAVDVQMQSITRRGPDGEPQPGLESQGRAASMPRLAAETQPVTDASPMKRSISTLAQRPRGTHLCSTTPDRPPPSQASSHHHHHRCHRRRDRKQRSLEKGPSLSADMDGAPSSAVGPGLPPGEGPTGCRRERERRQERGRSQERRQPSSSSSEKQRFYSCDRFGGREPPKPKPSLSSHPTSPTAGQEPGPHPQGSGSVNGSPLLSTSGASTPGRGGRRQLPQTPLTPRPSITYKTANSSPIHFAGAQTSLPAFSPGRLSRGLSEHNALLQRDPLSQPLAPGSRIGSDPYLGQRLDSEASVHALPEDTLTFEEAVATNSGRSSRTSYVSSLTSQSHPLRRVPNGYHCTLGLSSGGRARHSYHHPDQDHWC
N-type calcium channel subunits (α1B, α2δ, and β3a), sequence (P54289 25-1103 partner): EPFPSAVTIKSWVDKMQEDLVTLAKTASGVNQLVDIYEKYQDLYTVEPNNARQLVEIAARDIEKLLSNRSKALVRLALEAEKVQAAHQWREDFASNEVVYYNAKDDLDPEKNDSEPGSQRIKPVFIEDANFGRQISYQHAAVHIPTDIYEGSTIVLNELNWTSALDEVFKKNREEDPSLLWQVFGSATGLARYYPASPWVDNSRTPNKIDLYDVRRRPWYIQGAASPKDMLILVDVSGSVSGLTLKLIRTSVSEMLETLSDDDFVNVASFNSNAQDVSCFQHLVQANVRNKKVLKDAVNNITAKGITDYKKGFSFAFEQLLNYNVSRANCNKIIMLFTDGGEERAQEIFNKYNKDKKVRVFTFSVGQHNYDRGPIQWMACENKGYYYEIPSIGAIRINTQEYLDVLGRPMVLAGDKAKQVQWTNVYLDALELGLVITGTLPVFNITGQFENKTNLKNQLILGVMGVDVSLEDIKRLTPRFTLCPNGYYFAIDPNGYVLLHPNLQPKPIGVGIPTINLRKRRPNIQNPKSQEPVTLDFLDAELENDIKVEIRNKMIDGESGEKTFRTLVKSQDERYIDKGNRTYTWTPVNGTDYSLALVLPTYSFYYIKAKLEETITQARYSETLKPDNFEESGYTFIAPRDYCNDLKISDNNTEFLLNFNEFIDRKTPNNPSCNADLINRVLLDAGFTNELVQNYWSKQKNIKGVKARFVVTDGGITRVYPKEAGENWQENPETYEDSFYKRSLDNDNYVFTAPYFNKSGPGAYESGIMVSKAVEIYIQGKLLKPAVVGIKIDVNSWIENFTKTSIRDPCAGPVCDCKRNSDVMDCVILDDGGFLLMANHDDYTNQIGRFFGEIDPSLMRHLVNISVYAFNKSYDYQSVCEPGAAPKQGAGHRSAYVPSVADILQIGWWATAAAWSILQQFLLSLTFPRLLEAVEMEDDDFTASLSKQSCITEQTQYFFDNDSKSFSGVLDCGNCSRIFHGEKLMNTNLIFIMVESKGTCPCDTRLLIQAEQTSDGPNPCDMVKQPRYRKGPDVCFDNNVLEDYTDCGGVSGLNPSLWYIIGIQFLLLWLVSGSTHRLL
N-type calcium channel subunits (α1B, α2δ, and β3a), sequence (P54284 whole entry partner): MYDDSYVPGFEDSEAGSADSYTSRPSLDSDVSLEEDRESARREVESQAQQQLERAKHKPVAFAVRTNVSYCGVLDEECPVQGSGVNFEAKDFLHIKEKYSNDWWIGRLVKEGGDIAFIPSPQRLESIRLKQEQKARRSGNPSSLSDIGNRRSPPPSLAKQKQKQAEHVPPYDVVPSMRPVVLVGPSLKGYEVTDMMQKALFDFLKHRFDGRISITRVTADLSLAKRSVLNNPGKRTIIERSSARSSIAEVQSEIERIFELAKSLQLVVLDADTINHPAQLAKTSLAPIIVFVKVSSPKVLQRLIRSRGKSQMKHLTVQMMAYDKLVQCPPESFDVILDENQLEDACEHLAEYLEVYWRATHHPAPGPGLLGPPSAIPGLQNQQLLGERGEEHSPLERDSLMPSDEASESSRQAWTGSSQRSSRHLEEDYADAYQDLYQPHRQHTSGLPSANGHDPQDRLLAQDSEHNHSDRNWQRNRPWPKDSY
How it was run: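 Percent block taken as current amplitude ratio with versus without compound, applied in rising doses; IC50 fitted where one cell received multiple doses. Protocol: 50 ms pulses to +20 mV at 0.067 Hz from […] or −90 mV holding; P/n leak subtraction, no junction-potential correction; manual and PatchXpress recordings.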

[3] = target: human α1H T-type channels (Homo sapiens, UniProt O95180); assay: T-type calcium channel block, whole cell patch clamp, α1H; details: HEK cells stably expressing human α1H; mainly non-inactivated protocol; values above 10,000 nM represented as 10000
Procedure: as §1, §2, §3, §4

Compound | pIC50 [1] | IC50 [2] [nM] | pIC50 [3]
Cc1cc(C(=O)N[C@H]2CC[C@@](F)(S(=O)(=O)c3cccc(C(F)(F)F)c3)CC2)c(C(F)(F)F)o1 [Compound 243] | 5.35 | 60 | –
O=C(N[C@H]1CC[C@@](F)(S(=O)(=O)c2cccc(C(F)(F)F)c2)CC1)c1ccnc(C(F)(F)F)c1 [Compound 246] | 5.76 | 130 | –
CC(C)(C)NC(=O)CNC[C@H]1CC[C@@H](S(=O)(=O)c2cccc(C(F)(F)F)c2)CC1 [Compound 35, N-tert-butyl-2-(((1S,4S)-4-(3-(trifluoromethyl)phenylsulfonyl)cyclohexyl)methylamino)acetamide] | – | – | < 5.00
CC1(CNC(=O)c2ccc(C(F)(F)F)cn2)CCC(F)(S(=O)(=O)c2cccc(C(F)(F)F)c2)CC1 (stereo not drawn) [Compound 152, N-((4-fluoro-1-methyl-4-(3-(trifluoromethyl)phenylsulfonyl)cyclohexyl)methyl)-5-(trifluoromethyl)picolinamide] | 5.44 | 550 | –
Cn1nc(C(F)(F)F)cc1C(=O)N[C@H]1CC[C@@](F)(S(=O)(=O)c2cccc(C(F)(F)F)c2)CC1 [Compound 241, N-((1S,4S)-4-fluoro-4-(3-(trifluoromethyl)phenylsulfonyl)cyclohexyl)-1-methyl-3-(trifluoromethyl)-1H-pyrazole-5-carboxamide] | 5.84 | 130 | –
O=S(=O)(N[C@H]1CC[C@@](F)(S(=O)(=O)c2cccc(C(F)(F)F)c2)CC1)c1ccc(C(F)(F)F)cc1 [Compound 301, N-((1S,4S)-4-fluoro-4-(3-(trifluoromethyl)phenylsulfonyl)cyclohexyl)-4-(trifluoromethyl) benzenesulfonamide] | < 5.00 | 530 | –
CC(C)(C)NC(=O)CNC[C@H]1C[C@H](S(=O)(=O)c2cccc(C(F)(F)F)c2)C1 [Compound 359, N-tert-butyl-2-(((1R,3R)-3-(3-(trifluoromethyl)phenylsulfonyl)cyclobutyl)methylamino)acetamide] | 5.27 | 1610 | –
CC1(CNC(=O)c2ccc(C(F)(F)F)nc2)CCC(S(=O)(=O)c2cccc(C(F)(F)F)c2)CC1 (stereo not drawn) [Compound 213, N-((1-methyl-4-(3-(trifluoromethyl)phenylsulfonyl)cyclohexyl)methyl)-6-(trifluoromethyl)nicotinamide] | 6.03 | 620 | –
O=C(NC[C@]1(O)CC[C@@H](S(=O)(=O)c2cccc(C(F)(F)F)c2)CC1)c1ccc(F)c(C(F)(F)F)c1 [Compound 234, 4-fluoro-N-(((1S,4S)-1-hydroxy-4-(3-(trifluoromethyl)phenylsulfonyl)cyclohexyl)methyl)-3-(trifluoromethyl)benzamide] | 5.67 | 870 | –
CC(C)(CNS(=O)(=O)c1ccc(S(C)(=O)=O)cc1)S(=O)(=O)c1cccc(C(F)(F)F)c1 [Compound 497, N-(2-methyl-2-(3-(trifluoromethyl)phenylsulfonyl)propyl)-4-(methylsulfonyl) benzenesulfonamide] | 6.28 | – | –
CN(CCC(C)(C)S(=O)(=O)c1cccc(C(F)(F)F)c1)C(=O)c1ccc(C(F)(F)F)cn1 [Compound 515, N-methyl-N-(3-methyl-3-(3-(trifluoromethyl)phenylsulfonyl)bulyl)-5-(trifluoromethyl)picolinamide] | 6.21 | – | –
4-(trifluoromethyl)-N-((1R,4R)-4- ((3- (trifluoromethyl)phenylsulfonyl) methyl)cyclohexyl)picolinamide [Compound 103] | < 5.00 | 460 | –
CC1(CNC(=O)c2cc(F)cc(Cl)c2)CCC(F)(S(=O)(=O)c2cccc(C(F)(F)F)c2)CC1 (stereo not drawn) [Compound 154, 3-chloro-5-fluoro-N-((4-fluoro-1-methyl-4-(3-(trifluoromethyl)phenylsulfonyl)cyclohexyl)methyl)benzamide] | 5.44 | 450 | –
O=C(N[C@H]1CC[C@@](F)(S(=O)(=O)c2cccc(C(F)(F)F)c2)CC1)c1ccnn1CC(F)(F)F [Compound 245, N-((1S,4S)-4-fluoro-4-(3-(trifluoromethyl)phenylsulfonyl)cyclohexyl)-1-(2,2,2-trifluoroethyl)-1H-pyrazole-5-carboxamide] | 5.42 | 130 | –
O=S(=O)(NC[C@H]1C[C@H](S(=O)(=O)c2cccc(C(F)(F)F)c2)C1)c1ccccc1C(F)(F)F [Compound 426, 2-(trifluoromethyl)-N-(((1R,3R)-3-(3-(trifluoromethyl)phenylsulfonyl)cyclobutyl)methyl)benzenesulfonamide] | < 5.00 | 1140 | –
CC(C)(CCNC(=O)c1cc(S(C)(=O)=O)ccc1Cl)S(=O)(=O)c1cccc(C(F)(F)F)c1 [Compound 530, 2-chloro-N-(3-methyl-3-(3-(trifluoromethyl)phenylsulfonyl)butyl)-5-(methylsulfonyl)benzamide] | 6.03 | – | –

The next lines start with the values.

pIC50 [1] | IC50 [2] [nM] | pIC50 [3] | Compound
6.48 | 740 | – | O=C(NC[C@]1(O)CC[C@@H](S(=O)(=O)c2cccc(C(F)(F)F)c2)CC1)c1cc(F)cc(Cl)c1 [Compound 228, 3-chloro-5-fluoro-N-(((1S,4S)-1-hydroxy-4-(3-(trifluoromethyl)phenylsulfonyl)cyclohexyl)methyl)benzamide]
< 5.00 | 1300 | – | O=C(Nc1ccc(Oc2ccc(F)cc2)nc1)[C@H]1C[C@H](S(=O)(=O)c2cccc(C(F)(F)F)c2)C1 [Compound 405, (1R,3R)-N-(6-(4-fluorophenoxy)pyridin-3-yl)-3-(3-(trifluoromethyl)phenylsulfonyl)cyclobutane carboxamide]
< 5.00 | 470 | – | CN(CC(=O)N[C@H]1CC[C@H](CS(=O)(=O)c2cccc(C(F)(F)F)c2)CC1)C1CCCCC1 [Compound 163]
5.79 | 340 | – | CS(=O)(=O)c1cc(C(F)(F)F)ccc1C(=O)N[C@H]1CC[C@@](F)(S(=O)(=O)c2cccc(C(F)(F)F)c2)CC1 [Compound 239, N-((1S,4S)-4-fluoro-4-(3-(trifluoromethyl)phenylsulfonyl)cyclohexyl)-2-(methylsulfonyl)-4-(trifluoromethyl)benzamide]
6.02 | 540 | – | CC1(CNC(=O)c2ccc(C(F)(F)F)cc2S(C)(=O)=O)CCC(F)(S(=O)(=O)c2cccc(C(F)(F)F)c2)CC1 (stereo not drawn) [Compound 155, N-((4-fluoro-1-methyl-4-(3-(trifluoromethyl)phenylsulfonyl)cyclohexyl)methyl)-2-(methylsulfonyl)-4-(trifluoromethyl)benzamide]
5.28 | 500 | – | CC1(CNC(=O)c2ccc(F)c(Cl)c2)CCC(F)(S(=O)(=O)c2cccc(C(F)(F)F)c2)CC1 (stereo not drawn) [Compound 153, 3-chloro-4-fluoro-N-((4-fluoro-1-methyl-4-(3-(trifluoromethyl)phenylsulfonyl)cyclohexyl)methyl)benzamide]
5.56 | 90 | – | O=C(N[C@H]1CC[C@@](F)(S(=O)(=O)c2cccc(C(F)(F)F)c2)CC1)c1ccc(F)c(Cl)c1 [Compound 238, 3-chloro-4-fluoro-N-((1S,4S)-4-fluoro-4-(3-(trifluoromethyl)phenylsulfonyl)cyclohexyl)benzamide]
5.54 | 580 | – | Cn1nc(C(F)(F)F)cc1C(=O)NCC1(C)CCC(F)(S(=O)(=O)c2cccc(C(F)(F)F)c2)CC1 (stereo not drawn) [Compound 151, N-((4-fluoro-1-methyl-4-(3-(trifluoromethyl)phenylsulfonyl)cyclohexyl)methyl)-l-methyl-3-(trifluoromethyl)-1H-pyrazole-5-carboxamide]
5.37 | 110 | – | COc1cc(C(=O)N[C@H]2CC[C@@](F)(S(=O)(=O)c3cccc(C(F)(F)F)c3)CC2)cc(Cl)n1 [Compound 242, 2-chloro-N-((1S,4S)-4-fluoro-4-(3-(trifluoromethyl)phenylsulfonyl)cyclohexyl)-6-methoxyisonicotinamide]
5.45 | 40 | – | CC(C)(C)S(=O)(=O)c1ccsc1C(=O)N[C@H]1CC[C@@](F)(S(=O)(=O)c2cccc(C(F)(F)F)c2)CC1 [Compound 244, 3-(tert-butylsulfonyl)-N-((1S,4S)-4-fluoro-4-(3-(trifluoromethyl)phenylsulfonyl)cyclohexyl)thiophene-2-carboxamide]
